The results in this text go back to patent US20230398130A1, “METHODS AND COMPOSITIONS FOR DIFFERENTIATING STEM CELLS” (Massachusetts Institute of Technology, priority 2020, published 2023).

Assay [1] relates to ISC-enriched organoids. Description: Primary screen, 384-well 2.5-D organoid differentiation (ENR+CD, 6 days): basal lysozyme secretion (LYZ.NS). Type of assay: cell-based, murine. The settings on record: for Dose.FC.LYZ.NS: primary screen, FC vs plate median; for Z.LYZ.NS: standard z score of FC. The text has this: (§1) High-throughput screening.
Assay [2] deals with ISC-enriched organoids. Description: Primary screen, 384-well 2.5-D organoid differentiation (ENR+CD, 6 days): carbachol-induced lysozyme secretion (LYZ.S). It is filed as cell-based, murine. The settings on record: primary screen, FC vs plate median.
From the text: as §1

Assay [3] deals with ISC-enriched organoids. Description: Primary screen, 384-well 2.5-D organoid differentiation (ENR+CD, 6 days, Target Selective Inhibitor Library, vs whole-plate median): ATP (CellTiter-Glo 3D, CTG). The settings on record: for Dose.FC.CTG: primary screen, FC vs plate median; for Z.CTG: standard z score of FC. (Cellular ATP, detected with luciferase, serves as a proxy for viable cell number.)

As to `O=C(Nc1cccnc1)N1CCC(Cc2cccc(Oc3ccc(C(F)(F)F)cn3)c2)CC1` [PF-3845], the Dose.FC.LYZ.NS is listed as 0.061 log 2 fold change in assay [1] (Dose 0.08 uM), −0.077 log 2 fold change in assay [1] (Dose 0.40 uM), −0.015 log 2 fold change in assay [1] (Dose 2.00 uM) and −0.131 log 2 fold change in assay [1] (Dose 10.00 uM). In addition, the Z.LYZ.NS in assay [1] (Dose 0.08 uM) is 0.532; in assay [1] (Dose 0.40 uM) it was −0.668; in assay [1] (Dose 2.00 uM) it was −0.131; in assay [1] (Dose 10.00 uM), −1.137. The Dose.FC.LYZ.S in assay [2] (Dose 0.08 uM) was 0.027 log 2 fold change; in assay [2] (Dose 0.40 uM) it was −0.061 log 2 fold change; in assay [2] (Dose 2.00 uM), −0.032 log 2 fold change; in assay [2] (Dose 10.00 uM), −0.195 log 2 fold change. Moreover, the Dose.FC.CTG in assay [3] (Dose 0.08 uM) is −0.047 log 2 fold change; in assay [3] (Dose 0.40 uM), 0.052 log 2 fold change; in assay [3] (Dose 2.00 uM), −0.103 log 2 fold change; in assay [3] (Dose 10.00 uM), −0.286 log 2 fold change. Further, the Z.CTG is −0.112 in assay [3] (Dose 0.08 uM), 0.125 in assay [3] (Dose 0.40 uM), −0.246 in assay [3] (Dose 2.00 uM) and −0.684 in assay [3] (Dose 10.00 uM).
As for `CN(c1ncccc1CNc1nc(Nc2ccc3c(c2)CC(=O)N3)ncc1C(F)(F)F)S(C)(=O)=O` [PF-562271], the Dose.FC.LYZ.NS in assay [1] (Dose 0.08 uM) was −0.068 log 2 fold change; in assay [1] (Dose 0.40 uM) it was −0.152 log 2 fold change; in assay [1] (Dose 2.00 uM) it was −0.234 log 2 fold change; in assay [1] (Dose 10.00 uM) it was −0.251 log 2 fold change. Also, the Z.LYZ.NS is on record as −0.589 in assay [1] (Dose 0.08 uM), −1.325 in assay [1] (Dose 0.40 uM), −2.034 in assay [1] (Dose 2.00 uM) and −2.184 in assay [1] (Dose 10.00 uM). Further, the Dose.FC.LYZ.S in assay [2] (Dose 0.08 uM) is −0.088 log 2 fold change; in assay [2] (Dose 0.40 uM) it was −0.214 log 2 fold change; in assay [2] (Dose 2.00 uM), −0.332 log 2 fold change; in assay [2] (Dose 10.00 uM), −0.414 log 2 fold change. The Dose.FC.CTG is −0.114 log 2 fold change in assay [3] (Dose 0.08 uM), −0.217 log 2 fold change in assay [3] (Dose 0.40 uM), −0.549 log 2 fold change in assay [3] (Dose 2.00 uM) and −0.949 log 2 fold change in assay [3] (Dose 10.00 uM). The Z.CTG in assay [3] (Dose 0.08 uM) was −0.273; in assay [3] (Dose 0.40 uM) it was −0.518; in assay [3] (Dose 2.00 uM) it was −1.311; in assay [3] (Dose 10.00 uM), −2.266.
Regarding `CS(=O)(=O)c1cccc(CNc2nc(Nc3ccc4c(c3)CCC(=O)N4)ncc2C(F)(F)F)c1` [PF-573228], the Dose.FC.LYZ.NS in assay [1] (Dose 0.08 uM) was 0.010 log 2 fold change; in assay [1] (Dose 0.40 uM) it was −0.046 log 2 fold change; in assay [1] (Dose 2.00 uM) it was −0.058 log 2 fold change; in assay [1] (Dose 10.00 uM), −0.250 log 2 fold change. The Z.LYZ.NS in assay [1] (Dose 0.08 uM) was 0.089; in assay [1] (Dose 0.40 uM), −0.401; in assay [1] (Dose 2.00 uM), −0.502; in assay [1] (Dose 10.00 uM) it was −2.180. Besides, the Dose.FC.LYZ.S in assay [2] (Dose 0.08 uM) is 0.114 log 2 fold change; in assay [2] (Dose 0.40 uM), 0.002 log 2 fold change; in assay [2] (Dose 2.00 uM), −0.174 log 2 fold change; in assay [2] (Dose 10.00 uM), −0.305 log 2 fold change. For the same molecule, the Dose.FC.CTG in assay [3] (Dose 0.08 uM) was 0.077 log 2 fold change; in assay [3] (Dose 0.40 uM), −0.054 log 2 fold change; in assay [3] (Dose 2.00 uM), −0.434 log 2 fold change; in assay [3] (Dose 10.00 uM), −0.497 log 2 fold change. Besides, the Z.CTG is on record as 0.183 in assay [3] (Dose 0.08 uM), −0.129 in assay [3] (Dose 0.40 uM), −1.037 in assay [3] (Dose 2.00 uM) and −1.188 in assay [3] (Dose 10.00 uM).
For `OCCn1cc(-c2cnc3nnn(Cc4ccc5ncccc5c4)c3n2)cn1` [PF-04217903], the Dose.FC.LYZ.NS in assay [1] (Dose 0.08 uM) was 0.085 log 2 fold change; in assay [1] (Dose 0.40 uM) it was 0.161 log 2 fold change; in assay [1] (Dose 2.00 uM), 0.122 log 2 fold change; in assay [1] (Dose 10.00 uM), 0.071 log 2 fold change. In addition, the Z.LYZ.NS was 0.742 in assay [1] (Dose 0.08 uM), 1.404 in assay [1] (Dose 0.40 uM), 1.060 in assay [1] (Dose 2.00 uM) and 0.617 in assay [1] (Dose 10.00 uM). Moreover, the Dose.FC.LYZ.S in assay [2] (Dose 0.08 uM) came to 0.110 log 2 fold change; in assay [2] (Dose 0.40 uM), 0.265 log 2 fold change; in assay [2] (Dose 2.00 uM) it was 0.049 log 2 fold change; in assay [2] (Dose 10.00 uM) it was 0.127 log 2 fold change. In addition, the Dose.FC.CTG in assay [3] (Dose 0.08 uM) is 0.136 log 2 fold change; in assay [3] (Dose 0.40 uM), 0.258 log 2 fold change; in assay [3] (Dose 2.00 uM), −0.051 log 2 fold change; in assay [3] (Dose 10.00 uM) it was 0.116 log 2 fold change. Moreover, the Z.CTG in assay [3] (Dose 0.08 uM) is given as 0.326; in assay [3] (Dose 0.40 uM), 0.616; in assay [3] (Dose 2.00 uM) it was −0.122; in assay [3] (Dose 10.00 uM) it was 0.276.
